These results are taken from patent publication US20240238423A9, “TETRAHYDROISOQUINOLINE HETEROBIFUNCTIONAL BCL-XL DEGRADERS” (Treeline Biosciences, Inc., priority 2022, published 2024).

Read-outs that look alike come from different tables or passages of the source. Some results are limits rather than exact numbers.

The target of this assay is T1, Human BCL-XL protein (N-terminal HiBiT tagged BCL-XL in HT1080 cells) (Homo sapiens, UniProt Q07817).
T1 construct: expressed in transfected cells; host or cells: HT-1080 (ATCC CCL-121), stably transduced with lentivirus pLV-UBC-N-HiBiT-BCL-XL-PGK-puro and selected with puromycin
T1 sequence (Q07817 whole entry): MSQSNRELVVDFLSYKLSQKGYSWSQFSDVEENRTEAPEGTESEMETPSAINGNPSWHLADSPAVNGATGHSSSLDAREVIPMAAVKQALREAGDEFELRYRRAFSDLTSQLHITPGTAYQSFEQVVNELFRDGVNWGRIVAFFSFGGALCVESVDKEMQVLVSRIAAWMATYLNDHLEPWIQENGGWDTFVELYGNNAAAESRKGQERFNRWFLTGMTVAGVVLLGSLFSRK
The assay can be described thus: HiBiT based degradation assay. Format: cell-based. As to conditions: HT1080 cells expressing HiBiT-BCL-XL; for Ymin (24 h) / Ymin (6 h): BCL-XL degradation normalized with DMSO control; for DC50: BCL-XL degradation. The gist of the method: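 HT1080 cells stably transduced by lentivirus with N-terminally HiBiT-tagged human BCL-XL and kept under 1 μg/mL puromycin selection were seeded at three thousand cells per well in 40 μL RPMI 1640 into 384-well plates pre-spotted with compounds across a concentration range. Luminescence was read on a PHERAstar FSX, normalized to DMSO, and fitted with a four-parameter logistic model.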
For orientation: The HiBiT peptide binds its large partner to form an active luciferase.

Consider `Cc1c(O[C@H]2CC[C@H](CCCN3CCN(c4ccc5c(C6CCC(=O)NC6=O)nn(C)c5c4)[C@H](C)C3)CC2)cccc1-c1ccc(N2CCc3cccc(C(=O)Nc4nc5ccccc5s4)c3C2)nc1C(=O)O` (stereo partly drawn) [Compound 278a, 6-(8-(benzo[d]thiazol-2-ylcarbamoyl)-3,4-dihydroisoquinolin-2(1H)-yl)-3-(3-(((1S,4r)-4-(3-((3R)-4-(3-(2,6-dioxopiperidin-3-yl)-1-methyl-1H-indazol-6-yl)-3-methylpiperazin-1-yl)propyl)cyclohexyl)oxy)-2-methylphenyl)picolinic acid], for which the “Ymin (24 h)” value (24 h) is recorded as “A (Ymin < 50%)”. The DC50 (24 h, read-out: EC50 (24 h)) was under 100 nM.
Taken in the same sequence, the figures for `Cc1c(OCCCC2CCN(Cc3ccc4c(C5CCC(=O)NC5=O)nn(C)c4c3)CC2)cccc1-c1ccc(N2CCc3cccc(C(=O)Nc4nc5ccccc5s4)c3C2)nc1C(=O)O` (centres unmarked) [Compound 304, 6-(8-(benzo[d]thiazol-2-ylcarbamoyl)-3,4-dihydroisoquinolin-2(1H)-yl)-3-(3-(3-(1-((3-(2,6-dioxopiperidin-3-yl)-1-methyl-1H-indazol-6-yl)methyl)piperidin-4-yl)propoxy)-2-methylphenyl)picolinic acid] were “B (50% ≤ Ymin < 70%)” and under 100 nM.
Consider `Cc1c(Oc2ccc(CCC(=O)Nc3ccc(C4CCC(=O)NC4=O)cc3)cc2)cccc1-c1ccc(N2CCc3cccc(C(=O)Nc4nc5ccccc5s4)c3C2)nc1C(=O)O` (centres unmarked) [Compound 102, 6-[8-(1,3-benzothiazol-2-ylcarbamoyl)-3,4-dihydro-1H-isoquinolin-2-yl]-3-[3-[4-[3-[4-(2,6-dioxo-3-piperidyl)anilino]-3-oxo-propyl]phenoxy]-2-methyl-phenyl]pyridine-2-carboxylic acid], for which the “Ymin (6 h)” value (6 h) was “B (50% ≤ Ymin < 70%)”. In addition, the DC50 (6 h, read-out: EC50 (6 h)) was under 100 nM.
As to `Cc1c(OCCCCCCN2CCN(c3ccc4c(C5CCC(=O)NC5=O)nn(C)c4c3)CC2)cccc1-c1ccc(N2CCc3cccc(C(=O)Nc4nc5ccccc5s4)c3C2)nc1C(=O)O` (centres unmarked) [Compound 222, 6-(8-(benzo[d]thiazol-2-ylcarbamoyl)-3,4-dihydroisoquinolin-2(1H)-yl)-3-(3-((6-(4-(3-(2,6-dioxopiperidin-3-yl)-1-methyl-1H-indazol-6-yl)piperazin-1-yl)hexyl)oxy)-2-methylphenyl)picolinic acid], the “Ymin (6 h)” value (6 h) was “B (50% ≤ Ymin < 70%)”. For the setting “24 h”, the “Ymin (24 h)” value is “A (Ymin < 50%)”. Moreover, the DC50 runs as follows: (6 h, read-out: EC50 (6 h)) under 100 nM; (24 h, read-out: EC50 (24 h)) under 100 nM.
Take `Cc1c(-c2ccc(N3CCc4cccc(C(=O)Nc5nc6ccccc6s5)c4C3)nc2C(=O)NCCCCCCCC(=O)Nc2ccc3c(C4CCC(=O)NC4=O)nn(C)c3c2)cnn1CC12CC3CC(CC(C3)C1)C2` (centres unmarked) [Compound 157, 2-(5-(1-(((3r,5r,7r)-adamantan-1-yl)methyl)-5-methyl-1H-pyrazol-4-yl)-6-((8-((3-(2,6-dioxopiperidin-3-yl)-1-methyl-1H-indazol-6-yl)amino)-8-oxooctyl)carbamoyl)pyridin-2-yl)-N-(benzo[d]thiazol-2-yl)-1,2,3,4-tetrahydroisoquinoline-8-carboxamide]: the “Ymin (6 h)” value (6 h) is given as “B (50% ≤ Ymin < 70%)”. Further, where the note is “6 h, read-out: EC50 (6 h)”, the DC50 was under 100 nM.
With `Cc1c(O[C@H]2CC[C@H](CCCN3CCN(c4ccc5c(N6CCC(=O)NC6=O)nn(C)c5c4)CC3)CC2)cccc1-c1ccc(N2CCc3cccc(C(=O)Nc4nc5ccccc5s4)c3C2)nc1C(=O)O` [Compound 316a, 6-(8-(benzo[d]thiazol-2-ylcarbamoyl)-3,4-dihydroisoquinolin-2(1H)-yl)-3-(3-(((1s,4r)-4-(3-(4-(3-(2,4-dioxotetrahydropyrimidin-1(2H)-yl)-1-methyl-1H-indazol-6-yl)piperazin-1-yl)propyl)cyclohexyl)oxy)-2-methylphenyl)picolinic acid], the “Ymin (24 h)” value (24 h) is given as “A (Ymin < 50%)”. The DC50 (24 h, read-out: EC50 (24 h)) was under 100 nM.
For `Cc1c(OCCCN2CCN(CC(=O)Nc3ccc4c(C5CCC(=O)NC5=O)nn(C)c4c3)[C@@H](C(F)(F)F)C2)cccc1-c1ccc(N2CCc3cccc(C(=O)Nc4nc5ccccc5s4)c3C2)nc1C(=O)O` (stereo partly drawn) [Compound 187b, 6-(8-(benzo[d]thiazol-2-ylcarbamoyl)-3,4-dihydroisoquinolin-2(1H)-yl)-3-(3-(3-((3R)-4-(2-((3-(2,6-dioxopiperidin-3-yl)-1-methyl-1H-indazol-6-yl)amino)-2-oxoethyl)-3-(trifluoromethyl)piperazin-1-yl)propoxy)-2-methylphenyl)picolinic acid], under “6 h”, the “Ymin (6 h)” value is reported as “B (50% ≤ Ymin < 70%)”. Besides, the “Ymin (24 h)” value (24 h) is “A (Ymin < 50%)”. For the same compound, the DC50 is under 100 nM (6 h, read-out: EC50 (6 h)) and under 100 nM (24 h, read-out: EC50 (24 h)).
On to `Cc1c(O[C@H]2CC[C@H](CCCC(=O)N3CCN(c4ccc5c(C6CCC(=O)NC6=O)nn(C)c5c4)CC3)CC2)cccc1-c1ccc(N2CCc3cccc(C(=O)Nc4nc5ccccc5s4)c3C2)nc1C(=O)O` (some centres unmarked) [Compound 227a, 6-(8-(benzo[d]thiazol-2-ylcarbamoyl)-3,4-dihydroisoquinolin-2(1H)-yl)-3-(3-(((1s,4r)-4-(4-(4-(3-(2,6-dioxopiperidin-3-yl)-1-methyl-1H-indazol-6-yl)piperazin-1-yl)-4-oxobutyl)cyclohexyl)oxy)-2-methylphenyl)picolinic acid], for which the “Ymin (24 h)” value (24 h) is given as “A (Ymin < 50%)”. For the same compound, the DC50 (24 h, read-out: EC50 (24 h)) was under 100 nM.
The matching figures for `Cc1c(OCCC2CCN(CCN3CCN(c4ccc5c(C6CCC(=O)NC6=O)nn(C)c5c4)CC3)CC2)cccc1-c1ccc(N2CCc3cccc(C(=O)Nc4nc5ccccc5s4)c3C2)nc1C(=O)O` (centres unmarked) [Compound 232, 6-[8-(1,3-benzothiazol-2-ylcarbamoyl)-3,4-dihydro-1H-isoquinolin-2-yl]-3-[3-[2-[1-[2-[4-[3-(2,6-dioxo-3-piperidyl)-1-methyl-indazol-6-yl]piperazin-1-yl]ethyl]-4-piperidyl]ethoxy]-2-methyl-phenyl]pyridine-2-carboxylic acid]: “A (Ymin < 50%)” and under 100 nM.
The matching figures for `Cc1c(O[C@@H]2CCC3(CCN(CC(=O)Nc4ccc5c(C6CCC(=O)NC6=O)nn(C)c5c4)CC3)C2)cccc1-c1ccc(N2CCc3cccc(C(=O)Nc4nc5ccccc5s4)c3C2)nc1C(=O)O` (single isomer, unassigned) [Compound 268b]: “A (Ymin < 50%)” and under 100 nM.
The matching figures for `Cc1c(OC[C@H]2CCC3(CCN(CC(=O)Nc4ccc5c(C6CCC(=O)NC6=O)nn(C)c5c4)CC3)C2)cccc1-c1ccc(N2CCc3cccc(C(=O)Nc4nc5ccccc5s4)c3C2)nc1C(=O)O` (single isomer, unassigned) [Compound 262a]: “A (Ymin < 50%)” and under 100 nM.
As to `Cc1c(O[C@H]2CC[C@H](CCCN3CCN(c4ccc5c(C6CCC(=O)NC6=O)nn(C)c5c4)C[C@@H]3C)CC2)cccc1-c1ccc(N2CCc3cccc(C(=O)Nc4nc5ccccc5s4)c3C2)nc1C(=O)O` (stereo partly drawn) [Compound 273b, 6-(8-(benzo[d]thiazol-2-ylcarbamoyl)-3,4-dihydroisoquinolin-2(1H)-yl)-3-(3-(((1R,4r)-4-(3-((2S)-4-(3-(2,6-dioxopiperidin-3-yl)-1-methyl-1H-indazol-6-yl)-2-methylpiperazin-1-yl)propyl)cyclohexyl)oxy)-2-methylphenyl)picolinic acid], the “Ymin (24 h)” value (24 h) is listed as “A (Ymin < 50%)”. Further, for the setting “24 h, read-out: EC50 (24 h)”, the DC50 is under 100 nM.
The matching figures for `Cc1c(O[C@H]2CC[C@H](CCCN3CC[C@@H](c4ccc5c(C6CCC(=O)NC6=O)nn(C)c5c4)C3)CC2)cccc1-c1ccc(N2CCc3cccc(C(=O)Nc4nc5ccccc5s4)c3C2)nc1C(=O)O` (single isomer, unassigned) [Compound 331b]: “A (Ymin < 50%)” and under 100 nM.
Taken in the same sequence, the figures for `Cc1c(O[C@H]2CC[C@H](CCCCN3CCN(c4ccc5c(C6CCC(=O)NC6=O)nn(C)c5c4)[C@@H](C(F)(F)F)C3)CC2)cccc1-c1ccc(N2CCc3cccc(C(=O)Nc4nc5ccccc5s4)c3C2)nc1C(=O)O` (stereo partly drawn) [Compound 339a, 6-(8-(benzo[d]thiazol-2-ylcarbamoyl)-3,4-dihydroisoquinolin-2(1H)-yl)-3-(3-(((1s,4r)-4-(4-((3R)-4-(3-(2,6-dioxopiperidin-3-yl)-1-methyl-1H-indazol-6-yl)-3-(trifluoromethyl)piperazin-1-yl)butyl)cyclohexyl)oxy)-2-methylphenyl)picolinic acid] were “B (50% ≤ Ymin < 70%)” and under 100 nM.
For the compound `Cc1c(OCC2CC3(CCN(CC(=O)Nc4cccc5c(C6CCC(=O)NC6=O)nn(C)c45)CC3)C2)cccc1-c1ccc(N2CCc3cccc(C(=O)Nc4nc5ccccc5s4)c3C2)nc1C(=O)O` (centres unmarked) [Compound 226, 6-[8-(1,3-benzothiazol-2-ylcarbamoyl)-3,4-dihydro-1H-isoquinolin-2-yl]-3-[3-[[7-[2-[[3-(2,6-dioxo-3-piperidyl)-1-methyl-indazol-7-yl]amino]-2-oxo-ethyl]-7-azaspiro[3.5]nonan-2-yl]methoxy]-2-methyl-phenyl]pyridine-2-carboxylic acid], the “Ymin (6 h)” value (6 h) is listed as “C (Ymin ≥ 70%)”. Besides, for the setting “24 h”, the “Ymin (24 h)” value was “B (50% ≤ Ymin < 70%)”. The DC50 runs as follows: (6 h, read-out: EC50 (6 h)) under 100 nM; (24 h, read-out: EC50 (24 h)) 100 to 1000 nM.
In the case of `Cc1c(O[C@H]2CC[C@H](CCCN3CC[C@@H](c4cccc5c(C6CCC(=O)NC6=O)nn(C)c45)C3)CC2)cccc1-c1ccc(N2CCc3cccc(C(=O)Nc4nc5ccccc5s4)c3C2)nc1C(=O)O` (single isomer, unassigned) [Compound 320b], the “Ymin (24 h)” value (24 h) is listed as “A (Ymin < 50%)”. Also, under “24 h, read-out: EC50 (24 h)”, the DC50 is under 100 nM.
